Measured values: patent publication US20090186810A1, “POTASSIUM CHANNEL MODULATORS AND PLATELET PROCOAGULANT ACTIVITY” (priority 2006, published 2009)
Entries after “also recorded” stand apart in the source; their conditions may differ. Where two headings read alike, the source gives them in different places.

Key:
Format in all cases: cell-based, human
[1] = system: collagen and thrombin activated platelets; assay: cells
Description: (§1) Platelet isolation was performed as described.^10 Briefly, 10 milliliters (mL) blood was collected in 2 mL anticoagulant ACD (80 mmol/L trisodium citrate, 52 mmol/L citric acid and 180 mmol/L glucose). Platelet rich plasma was obtained by centrifuging whole blood for 15 minutes at 200 g. Platelets were spun down at 11,500× gravity for 2 minutes using a microfuge. The platelet pellet was resuspended and washed twice with 10 mmol/L HEPES, 137 mmol/L NaCl, 2.7 mmol/L KCl, 2 mmol/L MgCl2, 5 mmol/L glucose and 0.5 mg/mL BSA, adjusted at pH 6.6); before each centrifugation step, 100 μL ACD was added to each mL resuspended platelets. Finally, platelets were resuspended in HEPES buffer at pH 7.4. Platelet count was adjusted at 2×10^8 platelets/mL. For measurement of the intracellular Ca^2+ concentration ([Ca^2+]i), platelets were loaded with Fura-2 (3 μmol/L) during 45 minutes at 37° C., prior to isolation.
Platelet activation was performed at 37° C. at a concentration of 10^7 platelets/mL in a volume of 0.5 mL under continuous stirring in the presence of 3 mmol/L CaCl2. Platelet agonists used were thrombin (5 nmol/L) plus collagen (10 μg/mL) or ionomycin (1 μmol/L). The effect of different inhibitors was studied by pre-treatment of platelets with the various agents for 30 minutes before starting the activation procedure. For the effects of high extracellular [K^+], platelet suspensions were diluted 20-fold to a concentration of […] in a modified HEPES buffer, referred to as HEPES/KCl buffer (10 mmol/L HEPES, 19.7 mmol/L NaCl, 120 mmol/L KCl, 2 mmol/L MgCl2, 5 mmol/L glucose and 0.5 mg/mL BSA, pH 7.4), activated and assayed for thrombin generation as described before. In some experiments, HEPES buffer was used in which 120 mmol/L NaCl was replaced by 120 mmol/L choline chloride (10 mmol/L HEPES, 17 mmol/L NaCl, 120 mmol/L choline chloride, 2.7 mmol/L KCl, 2 mmol/L MgCl2, 5 mmol/L glucose and 0.5 mg/mL BSA, pH 7.4), referred to as HEPES/Choline buffer.
(§2) Platelet procoagulant activity was assayed as described in more detail elsewhere.^9 Briefly, after activation of 10^7 platelets/mL with collagen (10 μg/mL) and thrombin (4 nmol/L) for 10 minutes, samples were taken and diluted to 10^6 platelets/mL in HEPES buffer containing 3 mmol/L CaCl2 and 0.5 mg/mL BSA. The samples were incubated with 0.2 nmol/L factor Xa and 2 nmol/L factor Va for 1 minute at 37° C. Thrombin formation was initiated by addition of 1 μmol/L prothrombin and arrested after 2 minutes by addition of 10 mmol/L EDTA. Thrombin was measured using the chromogenic substrate S2238.
FIG. 2. illustrates the effect of potassium channel inhibitors on collagen plus thrombin induced platelet procoagulant activity. Platelets at 10^7 ml^−1 were preincubated with various inhibitors for 30 minutes followed by activation with collagen (10 μg/ml) plus thrombin (4 nmol/L) for 10 minutes. Samples from these incubations were diluted 10-fold in HEPES buffer containing 3 mmol/L CaCl2 and subsequently analyzed for prothrombinase activity (A) or percentage of annexin-positive cells (B) as described in the Materials and Methods section above. Valinomycin was added 5 minutes prior to activation of the platelets (to avoid long term effects of this ionophore). Black bars: absence of valinomycin; hatched bars: presence of valinomycin. […] Student's t-test was used to compare data in the presence and absence of valinomycin.

[2] = system: platelets, collagen plus thrombin induced aggregation; assay: Platelet aggregation (Chronolog aggregometer)
Description: (§3) Aggregation was measured at 37° C. in 450 μL samples of a platelet suspension of 2×10^8/mL using an automated model 400 Chronolog aggregometer (Chronolog Corporation, Chicago, USA). After stirring for 2 minutes at 300 rpm, CaCl2 (3 mmol/L) was added, 1 minute later followed by simultaneous addition of 10 μg/mL collagen and 4 nmol/L thrombin. The resulting aggregation was recorded for 5 minutes after which 50 μL ATP-reagent (Boehringer Mannheim ATP Bioluminescence Assay Kit HS II) was added to quantify the release reaction.

[3] = system: platelets, collagen plus thrombin induced release of ATP; assay: Platelet release reaction (ATP bioluminescence)
Description: as §3

[4] = system: collagen plus thrombin activated platelets; assay: Flow cytometry, binding of FITC-conjugated annexin A5 (PS exposure)
Description: as §1
Platelet activation was performed at 37° C. at a concentration of 10^7 platelets/mL in a volume of 0.5 mL under continuous stirring in the presence of 3 mmol/L CaCl2. Platelet agonists used were thrombin (5 nmol/L) plus collagen (10 μg/mL) or ionomycin (1 μmol/L). […]
Samples for flow cytometry were taken simultaneously with samples for the prothrombinase assay from the platelet incubations after 10 minutes activation. To measure PS exposure, samples were diluted 10-fold in HEPES buffer containing 3 mmol/L CaCl2 and incubated with FITC-conjugated Annexin A5 (final concentration 10 nmol/L) for 5 minutes and analyzed for light scatter and fluorescence by a Coulter Epics XL-MLC™ flow cytometer. Light scatter and fluorescence channels were set at logarithmic gain. Scatter parameters and fluorescence intensities were obtained from 10,000 platelets and analyzed off-line using WinMDI version 2.8 software (http://facs.scripps.edu/software.html). Ionomycin activated platelets were used to set a marker for fluorescence intensity of annexin-positive platelets to measure the percentage of annexin-positive platelets after the various incubation procedures. […]

[5] = system: collagen plus thrombin activated platelets; assay: Measurement of [Ca2+]i of Fura-2-loaded platelets in suspension
Description: as §1
Platelets (5×10^7/mL) were incubated with K^+ channel inhibitors for 5 minutes, followed by the addition of tirofiban (5 μg/mL) and Ca^2+ (3 mmol/L) and incubated for an additional 5 minutes under stirring conditions. Collagen (10 μg/mL) plus thrombin (5 nmol/L) were then added simultaneously. Changes in [Ca^2+]i of Fura-2-loaded platelets were measured under continuous stirring by dual excitation fluorometry in an SLM-Aminco 8100 spectrofluorimeter (SLM Instruments). Ratio values of fluorescence at 340 and 380 nm excitation, obtained 5 minutes after activation with collagen plus thrombin, were converted to levels of [Ca^2+]i as described.^14 Experiments were performed in triplicate at 37° C.

[6] = system: platelets from a patient with Scott syndrome; assay: Prothrombinase activity of platelets from a patient with Scott syndrome; conditions: valinomycin 3 μmol/L; collagen plus thrombin stimulation; FIG. 5
Description: For experiments with platelets from a patient with Scott syndrome, freshly obtained citrated blood from the patient and a control was shipped by airmail and platelets were isolated and used for experiments immediately upon arrival (approx 24 hours after blood donation).
as §2
In FIG. 5, the effect of valinomycin on collagen plus thrombin induced procoagulant activity of platelets from a patient with Scott syndrome is shown. Prothrombinase activities, expressed as nmol/L thrombin formed per minute, were determined after activation with collagen (10 μg/ml) plus thrombin (4 nmol/L) in the absence (black bars) and presence (hatched bars) of valinomycin (3 μmol/L). Data are mean values±1 S.D. (n=6).

[7] = system: platelets, tetracaine-induced PS exposure; assay: Tetracaine-induced binding of FITC-conjugated annexin A5
[8] = system: platelets, tetracaine-induced PS exposure; assay: Tetracaine-induced prothrombinase activity
[9] = collagen 10 μg/mL plus thrombin 4 nmol/L, concentration as given in row

Molecule: iberiotoxin (QFTDVDCSVSKECWSVCKDLFGVDRGKCMGKKCRCYQ; UniProt P24663 1-37, looked up)
- effect on collagen plus thrombin-induced procoagulant (prothrombinase) activity, in words ([1]; iberiotoxin 200 nmol/L, apamin 500 nmol/L): without effect

Molecule: C=C[C@H]1CN2CC[C@H]1C[C@H]2[C@H](O)c1ccnc2ccc(OC)cc12.Cl [quinine, quinine hydrochloride]
- Aggregation % of control (±S.D.) [2, 9]: 40.0 ± 3.0 % of control
- inhibition of the aggregation ([2]; collagen plus thrombin induced): approximately 60%
- Release (ATP) % of control (±S.D.) [3, 9]: 90.1 ± 4.1 % of control
- effect on the release, in words ([3]; collagen plus thrombin induced): only a minor effect

Molecule: CC(C)[C@@H]1NC(=O)[C@H](C)OC(=O)[C@@H](C(C)C)NC(=O)[C@@H](C(C)C)OC(=O)[C@H](C(C)C)NC(=O)[C@H](C)OC(=O)[C@@H](C(C)C)NC(=O)[C@@H](C(C)C)OC(=O)[C@H](C(C)C)NC(=O)[C@H](C)OC(=O)[C@@H](C(C)C)NC(=O)[C@@H](C(C)C)OC1=O [valinomycin]
- reversal of the inhibition by clotrimazol and charybdotoxin in HEPES/Choline ([4]; presence of valinomycin, HEPES/Choline buffer, annexin A5 binding, FIG. 4): virtually annihilated
- Δ[Ca2+]i with valinomycin in clotrimazol-preincubated platelets ([5]; clotrimazol 10 μmol/L plus valinomycin, 5 minutes after collagen plus thrombin): 326 ± 34 nmol/L
- reversal of the inhibition of the procoagulant response by high extracellular [K+] ([1]; addition of valinomycin, data not shown): not reversed
- reversal of the inhibitory effect of quinine on procoagulant response ([1]; valinomycin 3 μmol/L, HEPES buffer, FIGS. 2A and B): partially abolished
- reversal of the inhibition of procoagulant response caused by clotrimazol and charybdotoxin ([1]; valinomycin 3 μmol/L, HEPES buffer, FIGS. 2A and B (prothrombinase and annexin)): completely reversed
- procoagulant response of platelets in the absence of a stimulus ([1]; valinomycin itself): did not cause a procoagulant response
- procoagulant response (prothrombinase activity) of Scott syndrome platelets, in words [6]: significant increase; also recorded: partially restored

Molecule: Clc1ccccc1C(c1ccccc1)(c1ccccc1)n1ccnc1 [clotrimazol, 1-[(2-chlorophenyl)diphenylmethyl]-1H-imidazole]
- extent of annexin binding (mean fluorescence intensity) of the residual PS positive platelets [4]: remains at the same level
- number of PS-exposing (annexin-positive) platelets [4]: decreased
- Δ[Ca2+]i ([5]; 5 minutes after stimulation with collagen plus thrombin, clotrimazol 10 μmol/L, charybdotoxin 20 nmol/L, control 364±18): 275 ± 10 nmol/L
- reduction of the increase in [Ca2+]i versus absence of inhibitors ([5]; clotrimazol 10 μmol/L): 24%
- inhibition at 10 µM ([1]; Homo sapiens, Platelet, read-out: inhibition of the prothrombinase activity of collagen and thrombin activated platelets): 46 ± 13%
- Aggregation % of control (±S.D.) [2]: 90.0 ± 2.8 % of control
- effect on aggregation or release, in words ([2]; collagen plus thrombin induced, aggregation and ATP release together): Neither high extracellular [K^+], nor the presence of clotrimazol or charybdotoxin showed an appreciable effect
- inhibition of tetracaine-induced binding of FITC-conjugated annexin A5 [7]: neither clotrimazol nor charybdotoxin could inhibit
- Release (ATP) % of control (±S.D.) [3]: 91.3 ± 5.0 % of control
- inhibition of tetracaine-induced prothrombinase activity [8]: neither clotrimazol nor charybdotoxin could inhibit
